Data from patent publication US20260373266A1, “PROTEIN DEGRADERS AND USES THEREOF” (KYMERA THERAPEUTICS, INC., priority 2022, published 2026).
pKd: −log10 of the molar value.

Molecular target: T1, DCAF1 WD40 domain (residues 1077-1390) (Homo sapiens, UniProt Q9Y4B6)
T1 construct: DCAF1 WD40 domain (residues 1077-1390)
Assay: DCAF1 binding assay by SPR (Biacore 8K+), DCAF1-3 KD
Conditions: 25 °C, read-out: DCAF1-3 SPR (KD)

T1 sequence (Q9Y4B6 1077-1390): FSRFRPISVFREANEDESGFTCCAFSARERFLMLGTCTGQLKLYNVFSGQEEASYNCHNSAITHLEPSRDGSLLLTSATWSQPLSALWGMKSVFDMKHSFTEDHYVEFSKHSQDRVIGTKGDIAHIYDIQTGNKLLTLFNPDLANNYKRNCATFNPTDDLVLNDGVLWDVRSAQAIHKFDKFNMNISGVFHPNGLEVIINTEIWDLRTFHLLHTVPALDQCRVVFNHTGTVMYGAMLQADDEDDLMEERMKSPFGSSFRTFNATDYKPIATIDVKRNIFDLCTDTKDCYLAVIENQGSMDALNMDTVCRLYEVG

| pKd | SMILES |
| --- | --- |
| < 3.70 | O=C(N[C@H](c1cccc(Cl)c1)[C@H]1CCNC1=O)c1c[nH]nc1-c1ccccc1F [I-192] |
| < 3.70 | O=C(N[C@H](c1cccc(Cl)c1)[C@@H]1CCNC1=O)c1c[nH]nc1-c1ccccc1F [I-193] |
| < 3.70 | O=C(N[C@H](c1cccc(Cl)c1)[C@H]1CCCNC1=O)c1c[nH]nc1-c1ccccc1F [I-194] |
| < 3.70 | O=C(N[C@H](c1cccc(Cl)c1)[C@@H]1CCCNC1=O)c1c[nH]nc1-c1ccccc1F [I-195] |
| > 5.00 | Fc1cccc(N2CCC[C@@H](N3CCc4c(N5CCOCC5)ccnc43)C2)c1 [I-196] |
| < 3.70 | Fc1cccc(N2CCC[C@@H](N3CCCc4c(N5CCOCC5)ccnc43)C2)c1 [I-197] |
| 4.00 to 5.00 | Fc1cccc(N2CC[C@@H](Nc3cc(N4CCOCC4)ccn3)C2)c1 [I-198] |
| < 3.70 | Fc1cccc(N2CC(Nc3cc(N4CCOCC4)ccn3)C2)c1 [I-199] |
| < 3.70 | NC(=O)C[C@H](NC(=O)c1n[nH]nc1-c1ccccc1F)c1cccc(Cl)c1 [I-200] |
| < 3.70 | NC(=O)C[C@H](NC(=O)c1n[nH]nc1-c1ncccc1F)c1cccc(Cl)c1 [I-201] |
| < 3.70 | NC(=O)C[C@H](NC(=O)c1c[nH]nc1-c1ccccn1)c1cccc(Cl)c1 [I-202] |
| < 3.70 | NC(=O)[C@H]1CCN(C(=O)c2c[nH]nc2-c2ccccc2F)[C@@H]1c1cccc(Cl)c1 [I-203] |
| < 3.70 | NC(=O)[C@@H]1CCN(C(=O)c2c[nH]nc2-c2ccccc2F)[C@@H]1c1cccc(Cl)c1 [I-204] |
| < 3.70 | NC(=O)C[C@@]1(NC(=O)c2c[nH]nc2-c2ccccc2F)CCc2c(Cl)cccc21 [I-205] |
| < 3.70 | NC(=O)C[C@H](NC(=O)c1c[nH]nc1-c1c(F)cccc1F)c1cccc(Cl)c1 [I-207] |
| < 3.70 | Cc1ccccc1-c1[nH]ncc1C(=O)N[C@@H](CC(N)=O)c1cccc(Cl)c1 [I-209] |
| < 3.70 | NC(=O)C[C@H](NC(=O)c1c[nH]nc1-c1ccccc1Cl)c1cccc(Cl)c1 [I-210] |
| < 3.70 | C[C@@H](C(N)=O)[C@H](NC(=O)c1c[nH]nc1-c1ccccc1F)c1cccc(Cl)c1 [I-211] |
| < 3.70 | C[C@H](C(N)=O)[C@H](NC(=O)c1c[nH]nc1-c1ccccc1F)c1cccc(Cl)c1 [I-212] |
| < 3.70 | Fc1cccc(N2CCC[C@]3(Cc4cnc(N5CCOCC5)cc4N3)C2)c1 [I-213] |
| < 3.70 | Fc1cccc(N2CCC[C@]3(CCc4cnc(N5CCOCC5)cc4N3)C2)c1 [I-214] |
| < 3.70 | NC(=O)C[C@H](NC(=O)c1cc(=O)[nH]cc1-c1ccccc1F)c1cccc(Cl)c1 [I-215] |

| pKd | SMILES |
| --- | --- |
| < 3.70 | NC(=O)C[C@H](NC(=O)c1c(-c2ccccc2F)cc[nH]c1=O)c1cccc(Cl)c1 [I-216] |
| < 3.70 | Fc1cccc(N2CC[C@@H](Nc3cc(N4CCOCC4)ncn3)C2)c1 [I-217] |
| < 3.70 | Fc1cccc(N2CC(Nc3cc(N4CCOCC4)ncn3)C2)c1 [I-218] |
| < 3.70 | Fc1cccc(N2CCCC[C@@H](Nc3cc(N4CCOCC4)ncn3)C2)c1 [I-219] |
| < 3.70 | NC(=O)C[C@H](NC(=O)c1nc(N)[nH]c1-c1ccccc1F)c1cccc(Cl)c1 [I-220] |
| < 3.70 | Fc1cccc(N2CCCC3(C2)CN(c2cc(N4CCOCC4)ccn2)C3)c1 [I-221] |
| < 3.70 | CC1(Nc2cc(N3CCOCC3)ccn2)CCCN(c2cccc(F)c2)C1 (stereo not drawn) [I-222] |
| < 3.70 | O=C1C[C@@H]([C@H](NC(=O)c2c[nH]nc2-c2ccccc2F)c2cccc(Cl)c2)CN1 [I-223] |
| < 3.70 | Fc1cccc(N2CCNC(Cc3cc(N4CCOCC4)ccn3)C2)c1 (stereo not drawn) [I-224] |
| < 3.70 | Fc1cccc(N2CCNC(Cc3cc(N4CCOCC4)ncn3)C2)c1 (stereo not drawn) [I-225] |
| < 3.70 | Fc1cccc(N2CCC3CCCc4cnc(N5CCOCC5)cc4N[C@H]3C2)c1 (stereo partly drawn) [I-226] |
| < 3.70 | Fc1cccc(N2CCC3CCCc4ncc(N5CCOCC5)cc4N[C@H]3C2)c1 (stereo partly drawn) [I-227] |
| < 3.70 | Fc1cccc(N2CCC3CCCc4ncc(N5CCOCC5)cc4NC3C2)c1 (stereo not drawn) [I-228] |
| < 3.70 | NC(=O)C[C@H](NC(=O)c1c[nH]nc1-c1ccccc1O)c1cccc(Cl)c1 [I-229] |
| < 3.70 | Cc1[nH]nc(C(=O)N[C@@H](CC(N)=O)c2cccc(Cl)c2)c1-c1ccccc1F [I-230] |
| < 3.70 | O=C(N[C@H](c1cccc(Cl)c1)c1ccon1)c1c[nH]nc1-c1ccccc1F [I-232] |
| < 3.70 | O=C(N[C@@H](c1cnoc1)c1cccc(Cl)c1)c1c[nH]nc1-c1ccccc1F [I-233] |
| < 3.70 | C[C@H]1CC[C@@H](Nc2cc(N3CCOCC3)ncn2)CN1c1cccc(F)c1 [I-234] |
| < 3.70 | NC(=O)C[C@H](NC(=O)c1c[nH]nc1-c1cccc2cc[nH]c12)c1cccc(Cl)c1 [I-235] |
| < 3.70 | NC(=O)C[C@H](NC(=O)c1c[nH]nc1-c1cccc2ccnn12)c1cccc(Cl)c1 [I-236] |
| < 3.70 | NC(=O)C[C@H](NC(=O)c1c[nH]nc1-c1cccc2ncnn12)c1cccc(Cl)c1 [I-237] |
| < 3.70 | NC(=O)C[C@H](NC(=O)c1c[nH]nc1-c1cc(=O)[nH]cn1)c1cccc(Cl)c1 [I-238] |

| pKd | SMILES |
| --- | --- |
| < 3.70 | NC(=O)C[C@H](NC(=O)c1c[nH]nc1-c1cccc2nc[nH]c12)c1cccc(Cl)c1 [I-239] |
| < 3.70 | NC(=O)C[C@H](NC(=O)c1c[nH]nc1-c1ccc2[nH]cnc2c1)c1cccc(Cl)c1 [I-240] |
| < 3.70 | NC(=O)C[C@@]1(NC(=O)c2c[nH]nc2-c2ccccc2F)CCCc2cc(Cl)ccc21 [I-241] |
| < 3.70 | NC(=O)C[C@@]1(NC(=O)c2c[nH]nc2-c2ccccc2F)CCc2cc(Cl)ccc21 [I-242] |
| < 3.70 | NC(=O)C[C@@]1(NC(=O)c2c[nH]nc2-c2ccccc2F)CCCc2ccc(Cl)cc21 [I-243] |
| < 3.70 | Fc1cccc(N2CC[C@@H]3CCCc4ncc(N5CCOCC5)cc4N[C@H]3C2)c1 [I-245] |
| < 3.70 | CS(=O)(=O)Cc1ccc(F)c(-c2[nH]ncc2C(=O)N[C@@H](CC(N)=O)c2cccc(Cl)c2)c1 [I-246] |
| < 3.70 | CS(=O)(=O)CCc1ccc(F)c(-c2[nH]ncc2C(=O)N[C@@H](CC(N)=O)c2cccc(Cl)c2)c1 [I-247] |
| 4.00 to 5.00 | COCc1ccc(F)c(-c2[nH]ncc2C(=O)N[C@@H](CC(N)=O)c2cccc(Cl)c2)c1 [I-248] |
| < 3.70 | COc1ccc(F)c(-c2[nH]ncc2C(=O)N[C@@H](CC(N)=O)c2cccc(Cl)c2)c1 [I-249] |
| 4.00 to 5.00 | COCCc1ccc(F)c(-c2[nH]ncc2C(=O)N[C@@H](CC(N)=O)c2cccc(Cl)c2)c1 [I-250] |
| < 3.70 | NC(=O)C[C@H](NC(=O)c1cn[nH]c1-c1cc(CC(F)F)ccc1F)c1cccc(Cl)c1 [I-251] |
| < 3.70 | NC(=O)C[C@H](NS(=O)(=O)c1c[nH]nc1-c1ccccc1F)c1cccc(Cl)c1 [I-252] |
| < 3.70 | NC(=O)C[C@](CO)(NC(=O)c1c[nH]nc1-c1ccccc1F)c1cccc(Cl)c1 [I-253] |
| < 3.70 | NC(=O)C[C@](NC(=O)c1c[nH]nc1-c1ccccc1F)(c1cccc(Cl)c1)C1CC1 [I-254] |
| < 3.70 | NC(=O)C[C@](CC1CC1)(NC(=O)c1c[nH]nc1-c1ccccc1F)c1cccc(Cl)c1 [I-255] |
| < 3.70 | NC(=O)C[C@@](NC(=O)c1c[nH]nc1-c1ccccc1F)(c1ccccc1)c1cccc(Cl)c1 [I-256] |
| < 3.70 | Fc1cccc(N2CCC[C@@H](N(CC(F)F)c3cc(N4CCOCC4)ccn3)C2)c1 [I-257] |
| < 3.70 | CS(=O)(=O)CN(c1cc(N2CCOCC2)ccn1)[C@@H]1CCCN(c2cccc(F)c2)C1 [I-258] |
| < 3.70 | Fc1cccc(N2CCCC(C3(c4cc(N5CCOCC5)ccn4)CC3)C2)c1 (stereo not drawn) [I-259] |
| < 3.70 | Fc1cccc(N2CCC[C@@H](Nc3cc(N4CCOCC4)ccn3)C2F)c1 (stereo partly drawn) [I-260] |
| < 3.70 | Fc1cccc(N2CCCC(C3(c4cc(N5CCOCC5)ccn4)CC3(F)F)C2)c1 (stereo not drawn) [I-261] |

| pKd | SMILES |
| --- | --- |
| < 3.70 | COC(C)(c1cc(N2CCOCC2)ccn1)C1CCCN(c2cccc(F)c2)C1 (stereo not drawn) [I-262] |
| < 3.70 | CC(c1cc(N2CCOCC2)ccn1)(C1CCCN(c2cccc(F)c2)C1)C(F)(F)F (stereo not drawn) [I-263] |
| < 3.70 | O=S(=O)(c1cc(N2CCOCC2)ccn1)C1CCCN(c2cccc(F)c2)C1 (stereo not drawn) [I-264] |
| < 3.70 | COC[C@@](CC(N)=O)(NC(=O)c1c[nH]nc1-c1ccccc1F)c1cccc(Cl)c1 [I-265] |
| < 3.70 | CC(F)(c1cc(N2CCOCC2)ccn1)C1CCCN(c2cccc(F)c2)C1 (stereo not drawn) [I-266] |
| < 3.70 | NC(=O)C[C@H](NC(=O)c1c[nH]nc1-c1cc(F)ccc1F)c1cccc(Cl)c1 [I-267] |
| < 3.70 | Cn1nnnc1-c1ccc(F)c(-c2n[nH]cc2C(=O)N[C@@H](CC(N)=O)c2cccc(Cl)c2)c1 [I-268] |
| < 3.70 | NC(=O)C[C@H](NC(=O)c1c[nH]nc1-c1cc(C(=O)O)ccc1F)c1cccc(Cl)c1 [I-269] |
| < 3.70 | COC(=O)c1ccc(F)c(-c2n[nH]cc2C(=O)N[C@@H](CC(N)=O)c2cccc(Cl)c2)c1 [I-270] |
| < 3.70 | CC(=O)N(c1cc(N2CCOCC2)ccn1)[C@@H]1CCCN(c2cccc(F)c2)C1 [I-271] |
| < 3.70 | NC(=O)CN(c1cc(N2CCOCC2)ccn1)[C@@H]1CCCN(c2cccc(F)c2)C1 [I-272] |
| < 3.70 | Fc1cccc(N2CCC[C@@H](N(c3ccccc3)c3cc(N4CCOCC4)ccn3)C2)c1 [I-273] |
| 4.00 to 5.00 | O[C@@H]1C[C@@H](Nc2cc(N3CCOCC3)ccn2)CN(c2cccc(F)c2)C1 [I-274] |
| < 3.70 | Fc1cccc(N2C[C@H](F)C[C@@H](Nc3cc(N4CCOCC4)ccn3)C2)c1 [I-275] |
| < 3.70 | OC[C@@]1(Nc2cc(N3CCOCC3)ccn2)CCCN(c2cccc(F)c2)C1 [I-276] |
| < 3.70 | FC[C@@]1(Nc2cc(N3CCOCC3)ccn2)CCCN(c2cccc(F)c2)C1 [I-277] |
| < 3.70 | NC(=O)[C@@H]1[C@H](Nc2cc(N3CCOCC3)ccn2)CCCN1c1cccc(F)c1 [I-278] |
| < 3.70 | OC[C@@H]1[C@H](Nc2cc(N3CCOCC3)ccn2)CCCN1c1cccc(F)c1 [I-279] |
| < 3.70 | Fc1cccc(N2CCC[C@@H](Nc3cc(N4CCOCC4)ccn3)C23COC3)c1 [I-280] |
| < 3.70 | O=C1[C@H](Nc2cc(N3CCOCC3)ccn2)CCCN1c1cccc(F)c1 [I-281] |
| < 3.70 | O=S1(=O)[C@H](Nc2cc(N3CCOCC3)ccn2)CCCN1c1cccc(F)c1 [I-282] |
